These results are taken from article PMC6130518, “Investigation of the effective components of the flowers of Trollius chinensis from the perspectives of intestinal bacterial transformation and intestinal absorption” (Pharmaceutical Biology, 2017).

Data set [1] relates to activated intestinal bacteria. The data set is described as follows: Intestinal bacterial transformation of AEOF. The format is in vitro ADME, human. The following applies: for After transformed by intestinal bacteria / Before transformed by intestinal bacteria: content in the extract; for transformation by intestinal bacteria (in words): in AEOF 15.0, 30.0, 60.0 mg/mL, up to 72 h, single person derived- or multiple people-derived intestinal bacteria; for time in which completely transformed by intestinal bacteria: in AEOF, isoquercetin to quercetin, trollioside to proglobeflowery acid. On the procedure: Each 3 g of fresh feces from 3 healthy men and 3 healthy women of 23–25 years old was suspended in 200 mL of general anaerobic medium (GAM, including L-cystine hydrochloride, soluble starch, pepsin, tryptone, peptone, soy peptone, serum powder, yeast extract, beef extract, and beef liver extract powder purchased from Beijing Aoboxing Biotechnology Co., Ltd, Beijing, China) broth prepared as per a literature (Yang & Xu [2011]), respectively, and cultured in an anaerobic incubator (Shanghai Cimomedical Appliance Co., Ltd., Shanghai, China) at 37 °C for 24 h (Tsuchihashi et al. [2009]). […] Each 100 μL of the activated intestinal bacteria from the 6 volunteers were added into 11.4 mL of GAM, mixed adequately, and incubated in the same conditions as previously to obtain the mixture of activated intestinal bacteria. About 0.4513, 0.9026, and 1.8052 g of AEOF were dissolved in 30 mL of GAM on a super clean bench (Beijing Great Wall Air Purification Co. Ltd., Beijing, China), respectively, to generate the experimental groups. Then, the triplicate GAM containing AEOF was divided into 24 screw-cap test tubes, and each screw-cap test tube had 3 mL of the GAM and 100 μL of the activated intestinal bacteria and the mixture of activated intestinal bacteria, respectively. They were incubated under the same condition, and the test tubes of each concentration in triplicate were removed from the anaerobic incubator at 0, 2, 4, 6, 12, 24, 48, and 72 h. About 100 μL of the bacterial suspension was replaced with GAM to obtain the control group. The GAM absent of the AEOF was used as the blank group. […] About 300 μL of the supernatant was collected, filtered through a 0.45 μm membrane filter, and stored at −20 °C before HPLC analysis.
The HPLC analysis was performed using a Waters 1500 series (Waters Business Operations, Milford, MA) equipped with a 1525 binary HPLC pump, an on-line degasser, a manual injector and a 2489 UV/Visible detector. […] The temperature was set at 35 °C and the UV detecting wavelengths were 254 and 365 nm. The mobile phase consisted of acetonitrile (HPLC grade, Fisher Co., Pittsburgh, PA) (A) and 1.0% acetic acid (Beijing Chemical Works, Beijing, China) in purified water (v/v) (B), and the gradient elution program was as follows: 5–10% A (0–5 min), 10–20% A (5–10 min), 20–25% A (10–22 min), 25–40% A (22–35 min), 40–50% A (35–40 min), and 50–5% A (40–42 min) at a flow rate of 1.0 mL/min. The volume injected was 5 μL.

The next data set deals with Caco-2 cell monolayers. The data set is described as follows: Transport experiment with Caco-2 cell monolayers. The note with it: for After transported with Caco-2 cell monolayers: intestinal bacterial transformed AEOF; for transport percentage: Caco-2 cell monolayers.
The subject of data set [2] is everted gut sacs (jejunum). The data set is described as follows: Absorption experiment with everted gut sacs. The following applies: for After transported with everted gut sacs: intestinal bacterial transformed AEOF; for transport percentage: Everted gut sacs, AP→BL.
For data set [3] the following is noted: previous study, ref Liu et al. [2015]; cited from earlier work.
A short description of data set [4]: Transport experiment with Caco-2 cell monolayers. The note with it: human; for Papp at 180 min, 10 mg/mL / Papp at 180 min, 20 mg/mL / Papp at 180 min, 30 mg/mL: Caco-2, Papp, Caco-2 cell monolayers; for Papp at 180 min, 10 mg/mL: extract 10 mg/mL; for Papp at 180 min, 20 mg/mL: extract 20 mg/mL; for Papp at 180 min, 30 mg/mL: extract 30 mg/mL. On the technique in general: Caco-2 monolayers are a common model of the intestinal barrier.
Procedure: The Caco-2 cells were cultured in the culture medium consisting of Dulbecco’s Modified Eagle Medium (DMEM, Gibco Inc., Grand Island, CA)-fetal bovine serum (FBS, Gibco Inc., Grand Island, CA)-nonessential amino acids (NEAA, Corning Costar, Cambridge, MA)-‘penicillin-streptomycin’ (Corning Costar, Cambridge, MA) (100:10:1:1, v/v/v/v) in 25 cm^2 flasks, which were incubated in 5% CO2 and constant temperature (37 °C) and humidity in the incubator. The culture medium was replaced every 2 or 3 days, and the cells were split 1:2 or 1:3 to conduct passage when they reached 80% confluence.
About 1.5 mL of the culture medium was added into the basal (BL) side of each well of the 12-well Transwell plates (insert diameter 12 mm, pore size 3.0 μm, membrane growth area 1.12 cm^2, Corning Costar, Cambridge, MA), and 0.5 mL of the Caco-2 cell suspension at the density of 2.0 × 10^5 cells/mL was seeded into the apical (AP) side of each insert. The cells were incubated in 5% CO2 and constant temperature (37 °C) and humidity in the incubator. The culture medium in both AP and BL sides was replaced every other day in the first week, then that in AP side was replaced every day and that in BL side was replaced every other day. The cells would differentiate and form a confluent monolayer. The integrity and viability of the cell monolayers were evaluated by measuring transepithelial electrical resistance (TEER) values in the culture medium at 37 °C using a Millicell®-ERS system (Millipore Corp., Bedford, MA), and only the inserts with the TEER above 600 Ω/cm^2 on day 21 were selected to perform the transport experiment.
About 200 μL of the solution in the receiving chambers was collected at 30, 60, 90, 120, 150, and 180 min, respectively, and then the same volume of HBSS was added. All samples were stored at −20 °C and filtered through a 0.45 μm membrane filter for HPLC analysis.
The HPLC conditions used for the analysis of the intestinal bacterial transformed AEOF before and after transport experiment was the same as above.
The transport percentage (%) was calculated using the formula transport percentage (%) = dQ/(C0 × V) × 100, wherein, V (mL) represented the volume of the donor compartment.

Data set [5] in a line: Absorption experiment with everted gut sacs. The note with it: Sprague-Dawley, rat.
The mark [6] stands for this setting: first of three lines per compound (lowest extract concentration).
The mark [7] stands for this setting: first of three lines per compound (lowest extract concentration; AEOF 15, 30, 60 mg/mL).
[8] abbreviates: second of three lines per compound (middle extract concentration, not given).
[9] abbreviates: third of three lines per compound (highest extract concentration, not given).
[10] abbreviates: first of three lines per compound (lowest concentration; 10, 20, 30 mg/mL).
[11] abbreviates: second of three lines per compound (middle concentration, not given).
The mark [12] stands for this setting: third of three lines per compound (highest concentration, not given).

Each structure is given as a SMILES string. “Also recorded” adds a separate entry of the source.

Turning to `COc1cc(C(=O)O)cc(CC=C(C)C)c1OC1OC(CO)C(O)C(O)C1O` (centres unmarked) [trollioside], the “After transformed by intestinal bacteria” value in data set [1] (setting [6]), in data set [1] (setting [8]) and in data set [1] (setting [9]) was 0.00 µg/mL throughout. The “Before transformed by intestinal bacteria” value (from here on “Before transformed”) in data set [1] (setting [7]) turned out to be 5.62 µg/mL; in data set [1] (setting [8]), 12.76 µg/mL; in data set [1] (setting [9]), 26.84 µg/mL. Further, the “transformation by intestinal bacteria (in words)” value (“transformation” for short) in data set [1] is “completely transformed”. The “time in which completely transformed by intestinal bacteria” value in data set [1] is given as no more than 24 h. Further, the “After transported with Caco-2 cell monolayers” value in the data set with Caco-2 cell monolayers (setting [10]), in the data set on Caco-2 cell monolayers (setting [11]) and in the data set on Caco-2 cell monolayers (setting [12]) was 0.00 µg/mL throughout. For the same compound, the “After transported with everted gut sacs” value in data set [2] (setting [10]), in data set [2] (setting [11]) and in data set [2] (setting [12]) was 0.00 µg/mL throughout.
With `O=c1cc(-c2ccc(O)c(O)c2)oc2c([C@@H]3O[C@H](CO)[C@@H](O)[C@H](O)[C@H]3O)c(O)cc(O)c12` [orientin], the “After transformed by intestinal bacteria” value in data set [1] (setting [6]) was 11.83 µg/mL; in data set [1] (setting [8]) it was 20.38 µg/mL; in data set [1] (setting [9]) it was 43.42 µg/mL. For the same compound, the “Before transformed” value in data set [1] (setting [7]) is 10.27 µg/mL; in data set [1] (setting [8]), 20.33 µg/mL; in data set [1] (setting [9]), 43.87 µg/mL. Besides, the “transformation” value in data set [1] was “not transformed; also recorded: not changed”. In addition, the absorption mechanism result in data set [3] is “transporter mediated efflux in addition to passive diffusion”. Moreover, the results for the Papp at 180 min, 10 mg/mL in data set [4] (AP→BL), in data set [4] (BL→AP) and in data set [5] were 25.3 ± 0.3 ×10⁻⁶ cm/s, 19.2 ± 1.4 ×10⁻⁶ cm/s and 21.9 ± 2.4 ×10⁻⁶ cm/s, respectively. Also, the apparent permeability (Papp) – broadly, the rate of passage across a membrane or cell layer, normalised by area and donor concentration – at 180 min, 20 mg/mL in data set [4] (AP→BL) came to 13.5 ± 0.2 ×10⁻⁶ cm/s; in data set [4] (BL→AP) it was 11.8 ± 0.2 ×10⁻⁶ cm/s; in data set [5] it was 18.5 ± 0.1 ×10⁻⁶ cm/s. Also, the Papp at 180 min, 30 mg/mL in data set [4] (AP→BL) turned out to be 19.5 ± 1.4 ×10⁻⁶ cm/s; in data set [4] (BL→AP), 16.3 ± 0.6 ×10⁻⁶ cm/s; in data set [5] it was 34 ± 3.4 ×10⁻⁶ cm/s. Besides, the transport percentage was 30.53% in the data set with Caco-2 cell monolayers (extract 10 mg/mL, AP→BL); 7.73% in the data set on Caco-2 cell monolayers (extract 10 mg/mL, BL→AP); 16.39% in the data set on Caco-2 cell monolayers (extract 20 mg/mL, AP→BL); 4.76% in the data set with Caco-2 cell monolayers (extract 20 mg/mL, BL→AP); 23.54% with Caco-2 cell monolayers (extract 30 mg/mL, AP→BL); 6.56% in the data set on Caco-2 cell monolayers (extract 30 mg/mL, BL→AP). The transport percentage is listed as 4.67% in data set [2] (extract 10 mg/mL), 3.50% in data set [2] (extract 20 mg/mL) and 6.75% in data set [2] (extract 30 mg/mL). The “After transported with Caco-2 cell monolayers” value in the data set on Caco-2 cell monolayers (setting [10]) was 0.33 µg/mL; in the data set on Caco-2 cell monolayers (setting [11]), 0.35 µg/mL; in the data set with Caco-2 cell monolayers (setting [12]), 0.82 µg/mL. The figures for the “After transported with everted gut sacs” value in data set [2] (setting [10]), in data set [2] (setting [11]) and in data set [2] (setting [12]) were 0.32 µg/mL, 0.49 µg/mL and 1.04 µg/mL, respectively.
For the compound `O=c1c(O)c(-c2ccc(O)c(O)c2)oc2cc(O)cc(O)c12` [quercetin], the entries for the “After transformed by intestinal bacteria” value in data set [1] (setting [6]), in data set [1] (setting [8]) and in data set [1] (setting [9]) were 2.12 µg/mL, 4.02 µg/mL and 8.45 µg/mL, respectively. Moreover, the “Before transformed” value in data set [1] (setting [7]) came out at 1.56 µg/mL; in data set [1] (setting [8]), 3.25 µg/mL; in data set [1] (setting [9]) it was 7.38 µg/mL. In data set [1], the “transformation” value is on record as “not transformed”. Moreover, the “After transported with Caco-2 cell monolayers” value with Caco-2 cell monolayers (setting [10]), in the data set with Caco-2 cell monolayers (setting [11]) and in the data set with Caco-2 cell monolayers (setting [12]) was 0.00 µg/mL throughout. Also, the “After transported with everted gut sacs” value in data set [2] (setting [10]), in data set [2] (setting [11]) and in data set [2] (setting [12]) was 0.00 µg/mL throughout.
Consider `O=c1c(O[C@@H]2O[C@H](CO)[C@@H](O)[C@H](O)[C@H]2O)c(-c2ccc(O)c(O)c2)oc2cc(O)cc(O)c12` [isoquercetin], for which the “After transformed by intestinal bacteria” value in data set [1] (setting [6]), in data set [1] (setting [8]) and in data set [1] (setting [9]) was 0.00 µg/mL in each case. The “Before transformed” value is 0.37 µg/mL in data set [1] (setting [7]), 0.56 µg/mL in data set [1] (setting [8]) and 1.38 µg/mL in data set [1] (setting [9]). Besides, the “transformation” value in data set [1] is reported as “completely transformed”. In addition, the “time in which completely transformed by intestinal bacteria” value in data set [1] is no more than 24 h. The “After transported with Caco-2 cell monolayers” value with Caco-2 cell monolayers (setting [10]), in the data set with Caco-2 cell monolayers (setting [11]) and in the data set with Caco-2 cell monolayers (setting [12]) was 0.00 µg/mL each time. Also, the “After transported with everted gut sacs” value in data set [2] (setting [10]), in data set [2] (setting [11]) and in data set [2] (setting [12]) was 0.00 µg/mL in each case.
As to `CC(C)NCC(O)COc1cccc2ccccc12` (centres unmarked) [propranolol, reference compound], in data set [4] (Caco-2, apparent permeability coefficient (Papp), reference compounds, validation of Caco-2 monolayers), the Papp at 180 min worked out at 41.2 ×10⁻⁶ cm/s.
